Laboratory results reported in US20190117586A1, “METHODS OF PREVENTING OR TREATING PARKINSON'S DISEASE BY THE FARNESYLATION OF PARIS” (The Johns Hopkins University, priority 2016, published 2019).

Tests used:
cPK-KO mice = assay: Conditional adult parkin knockout (cPK-KO) mice; format: in vivo
Excerpt: In this setting, the level of farnesylated PARIS was monitored in the SN of cPK-KO mice fed with either chow diet or farnesol diet.
To generate Cre-flox conditional model of parkin knock out, an adeno-associated vector expressing GFP fused Cre recombinase (AAV-GFPCre) was stereotaxically introduced into the SN of exon 7 floxed parkin mice (parkin^Flox/Flox).

PARIS = assay: Subcellular fractionation of PARIS by immunoblot; format: cell-based
Method: To confirm that farnesylation of PARIS requires FTase, siRNA-FTase α knockdown or FTI-277 inhibition of FTase in the setting of PARIS overexpression was performed (FIG. 4C). […] To ascertain whether the farnesylation of PARIS affects the DNA binding activity of PARIS on the IRS motif of the PGC-1α promoter, a chromatin immunoprecipitation assay (ChIP) was performed from SH-SY5Y transfected with GFP-tagged PARIS WT or GFP-tagged PARIS C631S. […] To examine the possibility that the farnesylation of PARIS alters its subcellular distribution, subcellular fractionation was used to monitor the levels of PARIS in cytosolic, membrane, soluble nuclear, and chromatin-bound nuclear fractions by immunoblot analysis (FIG. 4F).

PGC-1α [1] = assay: PGC-1α levels in SH-SY5Y cells by immunoblot; format: cell-based; conditions: SH-SY5Y cells
Method: The 9 compounds that activate the PGC-1α promoter in the presence of PARIS were evaluated to determine which compounds induce PGC-1α levels in SH-SY5Y cells (FIGS. 2A and 2B). […] The mRNA level of PGC-1α target genes including copper/zinc superoxide dismutase (SOD1), manganese SOD (SOD2), glutathione peroxidase (GPx1), catalase (CAT), nuclear respiratory factor-1 (NRF-1), mitochondrial transcription factor A (TFAM), mitochondrial uncoupling proteins (UCP2 and UCP3), and the oxidative phosphorylation regulators, ATP5b, cytochrome C (CytC) and cytochrome C oxidase (COX II and IV) were determined by real-time quantitative RT-PCR (qRT-PCR) (FIG. 2C).
Geraniol or geranylgeraniol have no effect on PGC-1α levels (FIG. 3H).

PPARα and PPARγ [2] = assay: PPARα and PPARγ levels and target gene mRNA in farnesol fed mice; format: in vivo
PPARα = molecular target: T1, PPARα (Homo sapiens, UniProt Q07869); conditions: cited from earlier work
T1 sequence (Q07869 1-468): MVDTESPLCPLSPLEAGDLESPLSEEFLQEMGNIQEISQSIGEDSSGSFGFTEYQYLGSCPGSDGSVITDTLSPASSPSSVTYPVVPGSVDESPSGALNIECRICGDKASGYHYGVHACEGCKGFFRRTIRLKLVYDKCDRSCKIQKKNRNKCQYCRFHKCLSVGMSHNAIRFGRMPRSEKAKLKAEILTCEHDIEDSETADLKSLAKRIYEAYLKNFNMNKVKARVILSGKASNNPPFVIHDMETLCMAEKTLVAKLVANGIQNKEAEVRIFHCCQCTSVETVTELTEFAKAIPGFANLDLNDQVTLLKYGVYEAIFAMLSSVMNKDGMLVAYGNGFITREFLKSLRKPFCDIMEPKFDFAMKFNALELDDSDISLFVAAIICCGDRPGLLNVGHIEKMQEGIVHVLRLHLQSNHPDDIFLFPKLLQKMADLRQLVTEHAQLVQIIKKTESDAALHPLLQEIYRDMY

Tg-PARIS mice = assay: Tet inducible conditional PARIS transgenic mice (Tg-PARIS); format: in vivo
Excerpt: A C-terminal FLAG tagged human PARIS under the control of a tetracycline responsive regulator (TetP-PARIS-Flag) was used to generate tetracycline responsive transgenic mice (Figure S5A). […] Three of the highest copy number male founder mice were crossed with the CamKIIα-tTA transgenic mice to achieve transgene expression throughout the mouse forebrain (Mayford et al., 1996). […] Thus, dams were maintained on doxycycline to suppress PARIS expression and pups were maintained on doxycycline diet for three weeks after birth. […] Dopamine neuronal number was assessed at 6 weeks of age when the mice were moribund by unbiased stereology counting of TH and Nissl positive neurons.
A second cohort of Tg-PARIS mice were maintained on […] prior to doxycycline withdrawal. Two groups of non-transgenic control (CamKIIα-tTA or TetP-PARIS) mice were subjected to the same dietary regimen.
To generate tet-off conditional PARIS transgenic mice, linearized transgenic constructs (NotI digestion, 8 kbp) were microinjected into the embryos and the embryos were transferred into B6D2F1 pseudo-pregnant female mice (Transgenic Animal Core of National Cancer Institute). The three high copy founders (line #121, 158, 179) were mated with C57/BL6 mice for two to three generations to establish the transgenic lines. PARIS induction in conditional transgenic mice was suppressed by feeding the mice with doxycycline-containing food (doxycycline Diet-Sterile, 200 mg per kg doxycycline, Bio-Serv).

PGC-1α and NRF-1 = assay: shRNA knockdown of PARIS in SH-SY5Y cells; format: cell-based
PPARα and PPARγ [3] = assay: PPARα and PPARγ levels, target genes and PPAR responsive element in SH-SY5Y cells; format: cell-based
PGC-1α [4] = assay: Parkin knockdown (lentiviral shRNA-parkin) SH-SY5Y cells; format: cell-based
Method: Knockdown of parkin leads to a 2.7 fold increase in the level of PARIS and a 65% decrease of PGC-1α (FIGS. 2D and 2E). […] The mRNA levels of PGC-1α and its target genes were assessed after knocking down parkin by real-time qRT-PCR.

[5] = tested on: AAV-PARIS injected C57BL/6J mice; format: in vivo
[6] = farnesol-fed versus normal chow-fed mice
[7] = farnesol diet from one week prior to injection

CC(C)=CCC/C(C)=C/CC/C(C)=C/CO [farnesol, (2E,6E)-3,7,11-trimethyldodeca-2,6,10-trien-1-ol]
farnesylation of PARIS (cPK-KO mice; SN of cPK-KO mice, farnesol diet): enhanced farnesylation of PARIS | decrements of PGC-1α and NRF-1 levels in the SN (cPK-KO mice; cPK-KO mice, farnesol diet): prevents the decrements of PGC-1α and NRF-1 levels | loss of dopamine neurons in the SN (cPK-KO mice; cPK-KO, farnesol diet from 7 days prior to viral injection): completely and significantly prevents the loss of dopamine neurons | PGC-1α and NRF-1 levels in the SN of control mice (cPK-KO mice; control mice, farnesol diet): increases PGC-1α and NRF-1 levels | mRNA of PGC-1α, NRF-1, SOD2, TFAM, UCP2, CytC, COX II and COX 1 in the SN (cPK-KO mice; [6]): upregulation | distribution of PARIS in cytoplasmic, membrane, and soluble nuclear fractions (PARIS): no change | level of chromatin-bound PARIS (PARIS; PARIS WT or C631S): abolished the level of chromatin-bound PARIS WT but not PARIS C631S | PGC-1α level by immunoblot analysis (PGC-1α [1]): significantly increased | mRNA levels of MCAD (PPARα and PPARγ [2]; SN of farnesol fed mice): increases | mRNA levels of PPARγ and ACOX1 (PPARα and PPARγ [2]; SN of farnesol fed mice): decreases | PGC-1α and NRF-1 levels (PPARα and PPARγ [2]; farnesol fed mice): increase | levels of PPARα and PPARγ (PPARα and PPARγ [2]; farnesol fed mice): no alteration | activation of PPARα in vitro (PPARα): capable of activating | dopaminergic neuronal PGC-1α immunoreactivity (Tg-PARIS mice; Tg-PARIS SN, co-immunostaining): increased dopaminergic neuronal PGC-1α immunoreactivity | Pole Test behavior (Tg-PARIS mice; Tg-PARIS, farnesol diet): complete behavioral rescue | farnesylation of PARIS (FLAG immunoprecipitation, farnesyl antibody) (Tg-PARIS mice; Tg-PARIS, farnesol diet): enhanced farnesylation of PARIS | premature lethality due to PARIS overexpression (Tg-PARIS mice; Tg-PARIS, farnesol diet): delays the premature lethality | reduction in PGC-1α and NRF-1 levels (Tg-PARIS mice; Tg-PARIS, farnesol diet): blocked | loss of dopamine neurons in the SN (TH and Nissl stereology) (Tg-PARIS mice; Tg-PARIS, farnesol diet from 3 days prior to doxycycline withdrawal): completely prevents the loss of dopamine neurons | mRNA level of PGC-1α and NRF-1 in the SN (Tg-PARIS mice; [6]): significantly upregulated | PGC-1α and NRF-1 levels in control mice (Tg-PARIS mice; non-transgenic control mice, farnesol diet): increases PGC-1α and NRF-1 levels | PGC-1α and NRF-1 levels after knockdown of PARIS (PGC-1α and NRF-1): fails to enhance the levels further | activation of a PPAR responsive element (PPARα and PPARγ [3]): fails to activate | levels of PPARα and PPARγ protein and mRNA and target genes ACOX1, CPT-1A, MCAD, LCAD (PPARα and PPARγ [3]): fails to influence | level of PGC-1α (PGC-1α [4]): restores the level of PGC-1α | level of parkin and PARIS (PGC-1α [4]): without affecting the level of parkin and PARIS | mRNA levels of SOD2, TFAM, ATP5B, CYTC, and COX II (PGC-1α [4]; qRT-PCR): significantly increased | reduction of mRNA of PGC-1α and NRF-1 (PGC-1α [4]; qRT-PCR): rescued | levels of PARIS WT or PARIS C631S ([5]; AAV injected mice, farnesol diet): did not affect | amphetamine-induced rotation behavior ([5]; AAV-PARIS WT, farnesol diet): restoration of amphetamine-induced rotation behavior | dopamine neuronal survival, AAV-PARIS C631S mice [5, 7]: no effect | loss of dopamine neurons, AAV-PARIS WT mice [5, 7]: completely prevents the loss of dopamine neurons | farnesylated PARIS in AAV-PARIS WT compared to AAV-PARIS C631S injected mice ([5]; farnesol fed mice, two weeks post-AAV injection): robustly observed
